Reference: article PMC5242325 (Antiviral therapy, 2015)

Columns and labels:
[1] = administration of a moderate fat meal; cited from earlier work
[2] = Raltegravir pharmacokinetics in cervicovaginal fluid; conditions: CVF, median (IQR); for AUC(0-t): AUC 0-12h
[3] = Raltegravir pharmacokinetics in blood plasma; conditions: for AUC(0-t): AUC 0-12h; for AUC(0-t) / concentration at 12 h / Cmax: BP, median (IQR)
[4] = female genital tract compared to BP; cited from earlier work
[5] = female, human, in vivo, 400 mg, first dose, HIV-infected postmenopausal women (n=5)
[6] = female, human, in vivo, 400 mg, steady state, HIV-infected postmenopausal women (n=5)
[7] = female, human, in vivo, 400 mg, steady state, HIV-infected premenopausal women (n=6)
[8] = female, human, in vivo, 400 mg, C12, first dose, HIV-infected postmenopausal women (n=5)
[9] = female, human, in vivo, 400 mg, C12, steady state, HIV-infected postmenopausal women (n=5)
[10] = female, human, in vivo, 400 mg, C12, steady state, HIV-infected premenopausal women (n=6)
[11] = female, human, in vivo, 400 mg, Cmax, first dose, HIV-infected postmenopausal women (n=5)
[12] = female, human, in vivo, 400 mg, Cmax, steady state, HIV-infected premenopausal women (n=6)

SMILES: Cc1nnc(C(=O)NC(C)(C)c2nc(C(=O)NCc3ccc(F)cc3)c(O)c(=O)n2C)o1 [raltegravir]
- increase in AUC [1]: 13%
- AUC(0-t) [2, 5]: 13800 ng·h/mL
- AUC(0-t) ([2]; female, human, in vivo, 400 mg, first dose, HIV-negative premenopausal women (n=7), BLD imputed 0.1 ng/ml): 1720 ng·h/mL
- AUC(0-t) [2, 6]: 9570 ng·h/mL
- AUC(0-t) [2, 7]: 11500 ng·h/mL
- AUC(0-t) ([2]; female, human, in vivo, 400 mg, steady state, HIV-negative premenopausal women (n=7), BLD imputed 0.1 ng/ml): 3160 ng·h/mL
- concentration at 12 h [2, 8]: 1290 ng/mL
- concentration at 12 h [2, 9]: 958 ng/mL
- concentration at 12 h [2, 10]: 447 ng/mL
- Cmax [2, 11]: 4780 ng/mL
- Cmax [2, 12]: 1920 ng/mL
- Cmax ([2]; steady state, HIV-infected postmenopausal women (n=5)): 2841 (326-4430) ng/mL
- AUC(0-t) [3, 5]: 4240 ng·h/mL
- AUC(0-t) ([3]; female, human, in vivo, 400 mg, first dose, HIV-negative premenopausal women (n=7)): 3100 ng·h/mL
- AUC(0-t) [3, 6]: 6180 ng·h/mL
- AUC(0-t) [3, 7]: 5760 ng·h/mL
- AUC(0-t) ([3]; female, human, in vivo, 400 mg, steady state, HIV-negative premenopausal women (n=7)): 8440 ng·h/mL
- concentration at 12 h [3, 8]: 222 ng/mL
- concentration at 12 h ([3]; female, human, in vivo, 400 mg, C12, first dose, HIV-negative premenopausal women (n=7)): 54 ng/mL
- concentration at 12 h [3, 9]: 310 ng/mL
- concentration at 12 h [3, 10]: 23 ng/mL
- concentration at 12 h ([3]; female, human, in vivo, 400 mg, C12, steady state, HIV-negative premenopausal women (n=7)): 303 ng/mL
- Cmax [3, 11]: 1660 ng/mL
- Cmax ([3]; female, human, in vivo, 400 mg, Cmax, first dose, HIV-negative premenopausal women (n=7)): 790 ng/mL
- Cmax ([3]; female, human, in vivo, 400 mg, Cmax, steady state, HIV-infected postmenopausal women (n=5)): 1170 ng/mL
- Cmax [3, 12]: 1980 ng/mL
- time after dosing by which all subjects had detectable concentrations in BP ([3]; first dose, HIV-negative premenopausal and HIV-infected postmenopausal women): ≤ 1 h
- Cmax ([3]; steady state, HIV-negative premenopausal women (n=7)): 1874 (587-2166) ng/mL

SMILES: C[C@@H]1CCO[C@H]2Cn3cc(C(=O)NCc4ccc(F)cc4F)c(=O)c(O)c3C(=O)N12 [dolutegravir]
- CVF:BP AUC ratio [4]: 0.07
